Assays:
[1] = biological target: full length human wildtype Btk (Homo sapiens (Human), UniProt Q06187); assay: Biochemical Btk Kinase Assay
Description: Formula I compounds were tested by a standard biochemical Btk Kinase Assay (Example 901). A generalized procedure for a standard biochemical Btk Kinase Assay that can be used to test Formula I compounds is as follows. […] Btk enzyme is prepared as follows: full length human wildtype Btk (accession number NM-000061) with a C-terminal V5 and 6× His tag was subcloned into pFastBac vector for making baculovirus carrying this epitope-tagged Btk. Generation of baculovirus is done based on Invitrogen's instructions detailed in its published protocol “Bac-to-Bac Baculovirus Expression Systems” (Cat. Nos. 10359-016 and 10608-016). […] A quantity of 1.25 μL of compounds in 5% DMSO is transferred to a 96-well ½ area Costar polystyrene plate. […] A quantity of 18.75 μL of master mix minus enzyme (as a negative control) and master mix plus enzyme is transferred to appropriate wells in 96-well ½ area costar polystyrene plate. […] The plate is read using time-resolved fluorescence with a Perkin Elmer Envision using excitation filter 330 nm, emission filter 665 nm, and 2nd emission filter 615 nm. IC50 values are subsequently calculated. Alternatively, the Lanthascreen assay can be used to evaluate Btk activity through quantification of its phosphorylated peptide product. […] Detection is determined on a Perkin Elmer Envision with 340 nm excitation and emission at 495 nm and 520 nm. […]

[2] = test system: CD69 by B lymphocytes in human whole blood; assay: CD69 Whole Blood Assay; format: cell-based; conditions: Lymphocyte; human whole blood activated with goat F(ab')2 anti-human IgM, 20 hours; CD69 positive cells that are also CD20 positive
From the text: A CD69 Whole Blood Assay can be conducted on Formula I compounds to determine the ability of compounds to inhibit the production of CD69 by B lymphocytes in human whole blood activated by crosslinking surface IgM with goat F(ab′)2 anti-human IgM (Example 907).
Human blood is obtained from healthy volunteers, with the following restrictions: 1 week drug-free, non-smokers. Blood (approximately 20 mls to test 8 compounds) is collected by venipuncture into Vacutainer® (Becton, Dickinson and Co.) tubes with sodium heparin.
Solutions of Formula I compounds at 10 mM in DMSO are diluted 1:10 in 100% DMSO, then are diluted by three-fold serial dilutions in 100% DMSO for a ten point dose-response curve. The compounds are further diluted 1:10 in PBS and then an aliquot of 5.5 μl of each compound is added in duplicate to a 2 ml 96-well plate; 5.5 μl of 10% DMSO in PBS is added as control and no-stimulus wells. Human whole blood—HWB (100 μl) is added to each well. After mixing the plates are incubated at 37° C., 5% CO2, 100% humidity for 30 minutes. […] Data acquired and Mean Fluorescence Intensity values were obtained using BD Biosciences DIVA Software. Results are initially analyzed by FACS analysis software (Flow Jo). […] The IC50 values are calculated by Prism version 5, using a nonlinear regression curve fit.

full length human wildtype Btk, sequence (Q06187 whole entry): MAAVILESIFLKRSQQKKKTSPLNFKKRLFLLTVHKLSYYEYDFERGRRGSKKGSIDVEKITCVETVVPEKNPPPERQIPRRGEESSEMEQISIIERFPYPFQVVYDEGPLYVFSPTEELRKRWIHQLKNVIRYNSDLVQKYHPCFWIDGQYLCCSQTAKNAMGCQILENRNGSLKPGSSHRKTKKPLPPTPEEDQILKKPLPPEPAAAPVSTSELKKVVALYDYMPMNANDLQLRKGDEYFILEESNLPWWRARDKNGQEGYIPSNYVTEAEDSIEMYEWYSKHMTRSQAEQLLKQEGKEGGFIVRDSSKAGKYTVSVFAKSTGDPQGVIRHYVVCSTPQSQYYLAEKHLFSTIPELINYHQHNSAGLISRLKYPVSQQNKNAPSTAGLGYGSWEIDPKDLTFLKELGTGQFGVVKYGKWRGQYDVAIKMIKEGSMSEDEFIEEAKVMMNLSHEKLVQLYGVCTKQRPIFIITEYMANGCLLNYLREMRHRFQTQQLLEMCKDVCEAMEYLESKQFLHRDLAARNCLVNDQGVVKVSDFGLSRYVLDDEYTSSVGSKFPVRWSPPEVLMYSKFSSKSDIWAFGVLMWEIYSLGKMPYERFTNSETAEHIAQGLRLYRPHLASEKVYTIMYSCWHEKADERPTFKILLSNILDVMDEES

melting point | Compound | IC50 [1] | IC50 [2]
174 to 176 °C | CCn1ccc(Nc2cc(-c3cccc(N4Cc5cc(C(C)(C)C)ccc5C4=O)c3CO)nn(C)c2=O)n1 [Compound 102, 5-tert-Butyl-2-(3-(5-(1-ethyl-1H-pyrazol-3-ylamino)-1-methyl-6-oxo-1,6-dihydropyridazin-3-yl)-2-(hydroxymethyl)phenyl)isoindolin-1-one] |  | 
236 to 238 °C | Cn1nc(-c2cccc(N3Cc4cc(C(C)(C)C)ccc4C3=O)c2CO)cc(Nc2ccncn2)c1=O [Compound 103, 5-tert-Butyl-2-(2-(hydroxymethyl)-3-(1-methyl-6-oxo-5-(pyrimidin-4-ylamino)-1,6-dihydropyridazin-3-yl)phenyl)isoindolin-1-one] |  | 
236 to 237 °C | Cn1nc(-c2cccc(N3Cc4cc(C(C)(C)C)ccc4C3=O)c2CO)cc(Nc2ccccn2)c1=O [Compound 104, 5-tert-Butyl-2-(2-(hydroxymethyl)-3-(1-methyl-6-oxo-5-(pyridin-2-ylamino)-1,6-dihydropyridazin-3-yl)phenyl)isoindolin-1-one] |  | 
202 to 204 °C | Cn1nc(-c2cccc(N3Cc4cc(C(C)(C)C)ccc4C3=O)c2CO)cc(Nc2ccn(C3CNC3)n2)c1=O [Compound 105, 2-(3-(5-(1-(Azetidin-3-yl)-1H-pyrazol-3-ylamino)-1-methyl-6-oxo-1,6-dihydropyridazin-3-yl)-2-(hydroxymethyl)phenyl)-5-tert-butylisoindolin-1-one] |  | 
145 to 147 °C | CCN(C)c1ccc2c(c1)CN(c1cccc(-c3cc(Nc4cc5n(n4)CCN(C)C5)c(=O)n(C)n3)c1CO)C2=O [Compound 106, 5-(Ethyl(methyl)amino)-2-(2-(hydroxymethyl)-3-(1-methyl-5-(5-methyl-4,5,6,7-tetrahydropyrazolo[1,5-a]pyrazin-2-ylamino)-6-oxo-1,6-dihydropyridazin-3-yl)phenyl)isoindolin-1-one] |  | 
240 to 242 °C | Cc1c(-c2cc(Nc3cc4n(n3)CCN(C)C4)c(=O)n(COP(=O)([O-])[O-])n2)cccc1N1Cc2cc(C(C)(C)C)sc2C1=O.[Na+].[Na+] [Compound 108, Sodium (3-(3-(2-tert-Butyl-6-oxo-4H-thieno[2,3-c]pyrrol-5(6H)-yl)-2-methylphenyl)-5-(5-methyl-4,5,6,7-tetrahydropyrazolo[1,5-a]pyrazin-2-ylamino)-6-oxopyridazin-1(6H)-yl)methyl Phosphate] |  | 
 | CN1CCn2nc(Nc3cc(-c4cccc(N5Cc6cc(C(C)(C)C)ccc6C5=O)c4CO)nn(C)c3=O)cc2C1 [Compound 145, 5-tert-butyl-2-[2-(hydroxymethyl)-3-[1-methyl-5-({5-methyl-4H,5H,6H,7H-pyrazolo[1,5-a]pyrazin-2-yl}amino)-6-oxo-1,6-dihydropyridazin-3-yl]phenyl]-2,3-dihydro-1H-isoindol-1-one] |  | 91 nM

Compound | melting point | IC50 [1] | IC50 [2]
Cc1c(-c2cc(Nc3cc4n(n3)CCN(C)C4)c(=O)[nH]n2)cccc1N1Cc2ccc(C(C)(C)C)cc2C1=O [Compound 107, 6-tert-Butyl-2-(2-methyl-3-(5-(5-methyl-4,5,6,7-tetrahydropyrazolo[1,5-a]pyrazin-2-ylamino)-6-oxo-1,6-dihydropyridazin-3-yl)phenyl)isoindolin-1-one] | 208 to 210 °C | 14 nM | 461 nM

From US8975260B2, “Pyridazinones, method of making, and method of use thereof” (Genetech, Inc, priority 2010, dated 2015)
